From patent publication US12690591B2, “Fungicidal composition containing oxadiazole compounds” (PI INDUSTRIES LIMITED, priority 2021, dated 2026)
Read-outs that look alike come from different tables or passages of the source.

Key:
Septoria nodorum = assay: Parastagonospora nodorum/Septoria nodorum/Stagnospora nodorum test (wheat), preventive glasshouse spray test; assay type: in vivo; conditions: preventive spray on wheat plants
Corynespora cassiicola = Corynespora cassiicola test (tomato), preventive glasshouse spray test; assay type: in vivo; conditions: single compound
Pyricularia oryzae = assay: whole plant or invertebrate; assay type: in vivo; conditions: for Observed Efficacy (%): preventive spray on rice plants
Phakopsora pachyrhizi = Phakopsora pachyrhizi test (soybean), preventive glasshouse spray test; assay type: in vivo; conditions: for pest or weed control at 0.1 ppm / pest or weed control at 0.0001 ppm / pest or weed control at 0.001 ppm / pest or weed control at 0.01 ppm / pest or weed control at 0.05 ppm: Phakopsora pachyrhizi, read-out: Observed Efficacy (%)
[1] = tested on: Pseudoperonospora cubensis; assay: Pseudoperonospora cubensis test (cucumber), preventive glasshouse spray test; assay type: in vivo
Excerpt: The test solutions were poured into the spray bottles for further applications.

Phytopthora infestans = assay type: in vivo; conditions: single compound, tomato, preventive spray
Alternaria solani = Alternaria solani test (tomato plants), preventive glasshouse spray test; conditions: for pest or weed control at 1 ppm / pest or weed control at 5 ppm / pest or weed control at 10 ppm: Alternaria solani, in Solanum lycopersicum, read-out: Observed Efficacy (%)
Erysiphe cichoracearum = Erysiphe cichoracearum test (cucumber), preventive glasshouse spray test; conditions: preventive spray on cucumber plants
Botrytis cinerea = Botrytis cinerea test (tomato), preventive glasshouse spray test; assay type: in vivo
[2] = Table D3, single compound, 0.1 ppm, soybean, preventive spray
[3] = Pyricularia oryzae, read-out: Observed Efficacy (%)
[4] = Table G1, single compound, 0.05 ppm
[5] = Table G1, single compound, 0.1 ppm
[6] = single compound, Conc. 0.05 ppm
[7] = Table D3, single compound, 0.05 ppm, soybean, preventive spray
[8] = Table D1, single compound, 0.05 ppm, soybean, preventive spray

In the case of O=[N+]([O-])c1cc(C(F)(F)F)c(Cl)c([N+](=O)[O-])c1Nc1ncc(C(F)(F)F)cc1Cl [Fluazinam, fluazinam], the “Observed Efficacy (%)” value (Septoria nodorum; single compound at 0.1 ppm) is reported as 21% and the “Observed Efficacy (%)” value (Corynespora cassiicola; Conc. 0.1 ppm) is reported as 12%.
With Cn1cc(C(=O)Nc2cccc3c2[C@@H]2CC[C@H]3C2=C(Cl)Cl)c(C(F)F)n1 (racemic) [Benzovindiflupyr, benzovindiflupyr] the “Observed Efficacy (%)” value (Corynespora cassiicola; Conc. 0.05 ppm) was 18%.
In the case of CO/C=C(/C(=O)OC)c1ccccc1Oc1cc(Oc2ccccc2C#N)ncn1 [Azoxystrobin, azoxystrobin, reference compound], the “Observed Efficacy (%)” value (Pyricularia oryzae; single compound at 0.1 ppm) is reported as 26%.
OC(Cc1ccccc1Cl)(Cn1nc[nH]c1=S)C1(Cl)CC1 (centres unmarked) [Prothioconazole, prothioconazole] was tested, and the pest or weed control at 0.1 ppm (Phakopsora pachyrhizi; Table D1, single compound, 0.1 ppm, soybean, preventive spray) was 48%, the “Observed Efficacy (%)” value (Phakopsora pachyrhizi; [2]) was 48% and the “Observed Efficacy (%)” value ([1]; single compound, Conc. 0.1 ppm) was 45%.
With O=C(CNc1ccc(F)cc1)c1ccc(-c2noc(C(F)(F)F)n2)cc1 [Compound (I-8), 2-((4-fluorophenyl)amino)-1-(4-(5-(trifluoromethyl)-1,2,4-oxadiazol-3-yl)phenyl)ethan-1-one] the “Observed Efficacy (%)” value (Phytopthora infestans; Conc. 1 ppm) was 32%, the “Observed Efficacy (%)” value (Phytopthora infestans; Conc. 5 ppm) was 42% and the pest or weed control at 0.0001 ppm (Phakopsora pachyrhizi; Table D3, single compound, 0.0001 ppm, soybean, preventive spray) was 37%. The pest or weed control at 0.001 ppm (Phakopsora pachyrhizi; Table D3, single compound, 0.001 ppm, soybean, preventive spray) was 47%, the pest or weed control at 0.01 ppm (Phakopsora pachyrhizi; Table D3, single compound, soybean, preventive spray) was 60% and the “Observed Efficacy (%)” value ([1]; single compound, Conc. 1 ppm) was 17%. The “Observed Efficacy (%)” value ([1]; single compound, Conc. 5 ppm) was 19%, the “Observed Efficacy (%)” value ([1]; single compound, Conc. 10 ppm) was 28% and the pest or weed control at 1 ppm (Alternaria solani) was 26%. For the same compound, the pest or weed control at 5 ppm (Alternaria solani) was 37%, the pest or weed control at 10 ppm (Alternaria solani) was 47% and the “Observed Efficacy (%)” value (Erysiphe cichoracearum; single compound at 1 ppm) was 19%. The “Observed Efficacy (%)” value (Erysiphe cichoracearum; single compound at 5 ppm) was 25%, the “Observed Efficacy (%)” value (Erysiphe cichoracearum; single compound at 10 ppm) was 31% and the pest or weed control at 1 ppm (Pyricularia oryzae; [3]) was 17%. For the same compound, the pest or weed control at 5 ppm (Pyricularia oryzae; [3]) was 22% and the pest or weed control at 10 ppm (Pyricularia oryzae; [3]) was 31%.
For mancozeb, the “Observed Efficacy (%)” value [1, 4] was 2%, the “Observed Efficacy (%)” value [1, 5] was 5% and the “Observed Efficacy (%)” value [1, 6] was 2%. For the same compound, the “Observed Efficacy (%)” value ([1]; single compound, Conc. 0.1 ppm) was 5% and the “Observed Efficacy (%)” value (Corynespora cassiicola; Conc. 0.05 ppm) was 10%.
COC(=O)N(OC)c1ccccc1COc1ccn(-c2ccc(Cl)cc2)n1 [Pyraclostrobin, pyraclostrobin] gave a pest or weed control at 0.05 ppm (Phakopsora pachyrhizi; [7]) of 37% and a pest or weed control at 0.1 ppm (Phakopsora pachyrhizi; [2]) of 46%.
In the case of O=C(NCCc1ncc(C(F)(F)F)cc1Cl)c1ccccc1C(F)(F)F [Fluopyram, fluopyram], the “Observed Efficacy (%)” value (Septoria nodorum; single compound at 0.05 ppm) is reported as 8%, the “Observed Efficacy (%)” value (Septoria nodorum; single compound at 0.1 ppm) is reported as 21% and the “Observed Efficacy (%)” value [1, 4] is reported as 2%. For the same compound, the “Observed Efficacy (%)” value [1, 5] was 12%, the “Observed Efficacy (%)” value [1, 6] was 2% and the “Observed Efficacy (%)” value ([1]; single compound, Conc. 0.1 ppm) was 12%.
For metiram [reference compound], the “Observed Efficacy (%)” value (Pyricularia oryzae; single compound at 0.1 ppm) was 18%.
For O=C(Nc1ccccc1-c1ccc(Cl)cc1)c1cccnc1Cl [Boscalid, boscalid, reference compound], the “Observed Efficacy (%)” value (Phytopthora infestans; Conc. 0.1 ppm) was 11% and the pest or weed control at 0.05 ppm (Phakopsora pachyrhizi; [8]) was 27%.
For N#Cc1sc2c(=O)c3ccccc3c(=O)c=2sc1C#N [Dithianon, dithianon], the “Observed Efficacy (%)” value (Septoria nodorum; single compound at 0.1 ppm) was 16%.
In the case of O=C1c2ccccc2C(=O)N1SC(Cl)(Cl)Cl [Folpet, folpet, reference compound], the “Observed Efficacy (%)” value (Phytopthora infestans; Conc. 0.1 ppm) is reported as 11% and the “Observed Efficacy (%)” value (Botrytis cinerea; Table F1, single compound, 0.1 ppm, tomato, preventive spray) is reported as 38%.
In the case of CC1CC(C)(C)c2c(F)ccc(NC(=O)c3cn(C)nc3C(F)F)c21 (centres unmarked) [Inpyrfluxam, inpyrfluxam], the “Observed Efficacy (%)” value (Phakopsora pachyrhizi; [8]) is reported as 18%, the “Observed Efficacy (%)” value (Septoria nodorum; single compound at 0.05 ppm) is reported as 12% and the “Observed Efficacy (%)” value (Alternaria solani; single compound at 0.1 ppm, preventive spray on tomato plants) is reported as 23%. The “Observed Efficacy (%)” value (Corynespora cassiicola; Conc. 0.05 ppm) was 16%.
O=C(COc1ccc(F)cc1)c1ccc(-c2noc(C(F)(F)F)n2)cc1 [Compound (I-2), 2-(4-fluorophenoxy)-1-(4-(5-(trifluoromethyl)-1,2,4-oxadiazol-3-yl)phenyl)ethan-1-one] gave a pest or weed control at 0.0001 ppm (Phakopsora pachyrhizi; Table D1, single compound, 0.0001 ppm, soybean, preventive spray) of 40%, a pest or weed control at 0.001 ppm (Phakopsora pachyrhizi; Table D1, single compound, 0.001 ppm, soybean, preventive spray) of 50% and a pest or weed control at 0.01 ppm (Phakopsora pachyrhizi; Table D1, single compound, soybean, preventive spray) of 62%. For the same compound, the “Observed Efficacy (%)” value (Septoria nodorum; single compound at 1 ppm) was 17%, the “Observed Efficacy (%)” value (Septoria nodorum; single compound at 5 ppm) was 20% and the “Observed Efficacy (%)” value (Septoria nodorum; single compound at 10 ppm) was 43%. The pest or weed control at 1 ppm (Alternaria solani) was 34%, the pest or weed control at 5 ppm (Alternaria solani) was 42% and the pest or weed control at 10 ppm (Alternaria solani) was 47%. For the same compound, the “Observed Efficacy (%)” value (Erysiphe cichoracearum; single compound at 1 ppm) was 13%, the “Observed Efficacy (%)” value (Botrytis cinerea; Table F1, single compound, 1 ppm, tomato, preventive spray) was 20% and the “Observed Efficacy (%)” value (Botrytis cinerea; Table F1, single compound, 5 ppm, tomato, preventive spray) was 27%. For the same compound, the “Observed Efficacy (%)” value (Botrytis cinerea; Table F1, single compound, 10 ppm, tomato, preventive spray) was 47%, the pest or weed control at 1 ppm (Pyricularia oryzae; [3]) was 17% and the pest or weed control at 10 ppm (Pyricularia oryzae; [3]) was 37%.
For O=C(COc1ccc(F)nc1)c1ccc(-c2noc(C(F)(F)F)n2)cc1 [Compound (I-3), 2-((6-fluoropyridin-3-yl)oxy)-1-(4-(5-(trifluoromethyl)-1,2,4-oxadiazol-3-yl)phenyl)ethan-1-one], the pest or weed control at 0.0001 ppm (Phakopsora pachyrhizi; single compound at 0.0001 ppm, preventive spray on soybean plants) was 43%, the pest or weed control at 0.001 ppm (Phakopsora pachyrhizi; single compound at 0.001 ppm, preventive spray on soybean plants) was 50% and the “Observed Efficacy (%)” value [1, 5] was 36%. The “Observed Efficacy (%)” value ([1]; Table G1, single compound, 1 ppm) was 32%, the “Observed Efficacy (%)” value ([1]; Table G1, single compound, 10 ppm) was 34% and the pest or weed control at 1 ppm (Alternaria solani) was 35%. For the same compound, the pest or weed control at 5 ppm (Alternaria solani) was 40%, the pest or weed control at 10 ppm (Alternaria solani) was 47% and the “Observed Efficacy (%)” value (Erysiphe cichoracearum; single compound at 1 ppm) was 35%. For the same compound, the “Observed Efficacy (%)” value (Erysiphe cichoracearum; single compound at 5 ppm) was 37%, the “Observed Efficacy (%)” value (Erysiphe cichoracearum; single compound at 10 ppm) was 39% and the “Observed Efficacy (%)” value (Corynespora cassiicola; Conc. 5 ppm) was 36%. For the same compound, the “Observed Efficacy (%)” value (Corynespora cassiicola; Conc. 10 ppm) was 45%, the “Observed Efficacy (%)” value (Botrytis cinerea; single compound at 10 ppm, preventive spray on tomato plants) was 20% and the pest or weed control at 10 ppm (Pyricularia oryzae; [3]) was 42%.
In the case of CNC(=O)/C(=N/OC)c1ccccc1Oc1ccccc1 [Metominostrobin, metominostrobin], the “Observed Efficacy (%)” value (Septoria nodorum; single compound at 0.05 ppm) is reported as 6% and the “Observed Efficacy (%)” value (Septoria nodorum; single compound at 0.1 ppm) is reported as 12%.
CC(O)(Cn1cncn1)c1ccc(Oc2ccc(Cl)cc2)cc1C(F)(F)F (centres unmarked) [Mefentrifluconazole, mefentrifluconazole] was tested, and the “Observed Efficacy (%)” value (Phakopsora pachyrhizi; [7]) was 32% and the “Observed Efficacy (%)” value (Phakopsora pachyrhizi; [2]) was 44%.
For CC1CC(C)(C)c2c(F)ccc(NC(=O)c3cn(C)nc3C(F)F)c21 (centres unmarked) [Fluindapyr, fluindapyr, reference compound], the “Observed Efficacy (%)” value [1, 4] was 35% and the “Observed Efficacy (%)” value (Pyricularia oryzae; single compound at 0.05 ppm) was 11%.
